{"source": "patent US9273304B2", "about": "“Inactivation method” (Thermo Fisher Scientific Baltics UAB, priority 2006, dated 2016)", "system": "CFTR gene / insulin gene, human DNA", "experiment": "PCR comparison with commercial hot-start Taq DNA polymerases (sensitivity, Fast PCR, extension time)", "format": "biochemical", "protocol": "Sets of PCR reactions were carried out in the Mastercycler (Eppendorf). The reactions were carried out with the following amounts of DNA polymerases: 0.3125 activity units, 0.625 activity units, 1.25 activity units, and 2.5 activity units. These sets of PCR were performed under conditions optimal for each DNA polymerase. The buffers for both the modified DNA polymerase of the current invention and the unmodified DNA polymerase were described in the Examples 7 and 11, while the buffers for the commercial DNA polymerases were those recommended by the vendors. All experiments were performed in the presence of 0.2 mM dNTP, 0.5 μM of each primers and human DNA (100 ng/50 μl). The PCR primers for amplification of the CFTR gene were described in the Example 8.\nThe PCR components were mixed at room temperature and the reaction was carried using the following cycling profile: 95° C.—4 min; (95° C.—0.5 min, 50° C.—0.5 min, 72° C.—1 min)—40 cycles; 72° C.—7 min, with the exception of the experiments with the HotStarTaq DNA polymerase, were 15 min pre-incubation at 95° C. was used, as recommended by the vendor.\nAmplifications and analysis of reaction products were performed as described in the Example 12. The 1.25 activity units of each polymerase were used in the PCR. The following amounts of human DNA were used as templates in the PCR: 0.1 ng, 1 ng, 10 ng, and 100 ng.\nAmplifications and analysis of PCR products were performed as described in the Example 12. The 1.25 activity units of each polymerase were used in the PCR. The set of PCR reactions was carried out at 20, 25, 30, 35 and 40 thermal cycles. respectively.\nSets of PCR reactions were carried out in the GeneAmp® PCR System 9700 (Applied Biosystems). The reactions were carried out with 1 activity unit of DNA polymerases. These sets of PCR reactions were performed in 20 μl of the buffers optimal for each. DNA polymerase. The buffers for the modified Tag polymerase and the unmodified Taq DNA polymerases were described in the Examples 7 and 11, while the buffers for the commercial DNA polymerases were those recommended by the vendors. The following commercial DNA polymerases were chosen for comparison: the FastStart Taq DNA polymerase (Roche), the AmpliTaq Gold DNA polymerase (Applied Biosystems), and the HotStarTaq DNA polymerase (Qiagen). All experiments were performed in the presence of 0.2 mM dNTP, 0.5 μM of each PCR primer and human DNA (40 ng/20 μl). The following primers were used for amplification of the insulin gene: […]\nThe PCR components were mixed in thin-walled PCR tubes on ice and the 500 bp amplicon was generated using the following reaction profile: 95° C.—30 s; (95° C.—0 s, 62° C.—12 s)—30 cycles; 72° C.—10 s.\nAmplifications and analysis of PCR products were performed as described in the Example 12. […]"}
{"substance": "Taq DNA polymerase modified with N-etoxycarbonyl-2,3-dimethylmaleinimide: Recombinant Taq DNA polymerase reversibly inactivated by reaction with N-ethoxycarbonyl-2,3-dimethylmaleinimide in aqueous solution (preferred molar ratio 1/110)", "values": [{"measurement": "performance in the “Fast PCR” application, compared with DNA polymerases from other vendors", "setting": "FIG. 14", "value": "superior performance"}, {"measurement": "primer extension time, compared with DNA polymerases from other vendors", "setting": "FIG. 15", "value": "shorter"}, {"measurement": "PCR sensitivity regarding the enzyme concentration, compared with DNA polymerases from other vendors", "setting": "versus HotStarTaq, AmpliTaq Gold, FastStart Taq, FIG. 11", "value": "higher sensitivity"}, {"measurement": "PCR sensitivity regarding the target DNA concentration, compared with DNA polymerases from other vendors", "setting": "versus HotStarTaq, AmpliTaq Gold, FastStart Taq, FIG. 12", "value": "higher sensitivity"}]}
